What was measured:
Assay in all cases: AlphaScreen Assay
[1] = molecular target: Ephrin type-A receptor 2 (Homo sapiens, UniProt P29317)
[2] = molecular target: T1, Ephrin type-B receptor 4 (Homo sapiens, UniProt P54760)
T1 sequence (P54760 whole entry): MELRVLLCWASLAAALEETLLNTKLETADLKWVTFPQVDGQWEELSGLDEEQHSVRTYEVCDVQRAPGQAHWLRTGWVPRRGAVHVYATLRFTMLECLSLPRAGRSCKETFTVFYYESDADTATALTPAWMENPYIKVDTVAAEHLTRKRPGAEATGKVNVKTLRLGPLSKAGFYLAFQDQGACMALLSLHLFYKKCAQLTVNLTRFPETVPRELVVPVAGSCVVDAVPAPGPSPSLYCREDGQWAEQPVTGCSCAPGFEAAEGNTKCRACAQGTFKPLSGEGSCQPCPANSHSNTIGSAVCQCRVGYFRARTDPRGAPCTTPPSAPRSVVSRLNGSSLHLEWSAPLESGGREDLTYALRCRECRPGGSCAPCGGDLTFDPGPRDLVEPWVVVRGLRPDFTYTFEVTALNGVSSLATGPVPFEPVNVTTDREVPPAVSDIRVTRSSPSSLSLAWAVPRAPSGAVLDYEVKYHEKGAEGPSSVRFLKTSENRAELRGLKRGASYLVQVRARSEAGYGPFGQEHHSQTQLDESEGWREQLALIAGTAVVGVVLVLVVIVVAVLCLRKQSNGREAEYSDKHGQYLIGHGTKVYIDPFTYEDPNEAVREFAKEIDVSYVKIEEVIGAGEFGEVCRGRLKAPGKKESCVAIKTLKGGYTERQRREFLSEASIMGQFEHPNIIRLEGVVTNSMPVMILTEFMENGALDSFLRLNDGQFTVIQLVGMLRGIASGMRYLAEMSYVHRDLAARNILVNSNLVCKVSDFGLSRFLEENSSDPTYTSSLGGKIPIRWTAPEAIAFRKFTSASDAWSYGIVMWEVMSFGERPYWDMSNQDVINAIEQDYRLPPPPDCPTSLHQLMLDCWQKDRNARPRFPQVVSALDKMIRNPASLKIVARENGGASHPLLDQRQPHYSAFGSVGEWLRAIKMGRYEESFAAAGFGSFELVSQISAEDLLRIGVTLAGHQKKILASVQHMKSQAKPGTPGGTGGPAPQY

[3] = molecular target: Vascular endothelial growth factor receptor 2 (Homo sapiens, UniProt P35968)
Chain of Vascular endothelial growth factor receptor 2 (P35968 whole entry): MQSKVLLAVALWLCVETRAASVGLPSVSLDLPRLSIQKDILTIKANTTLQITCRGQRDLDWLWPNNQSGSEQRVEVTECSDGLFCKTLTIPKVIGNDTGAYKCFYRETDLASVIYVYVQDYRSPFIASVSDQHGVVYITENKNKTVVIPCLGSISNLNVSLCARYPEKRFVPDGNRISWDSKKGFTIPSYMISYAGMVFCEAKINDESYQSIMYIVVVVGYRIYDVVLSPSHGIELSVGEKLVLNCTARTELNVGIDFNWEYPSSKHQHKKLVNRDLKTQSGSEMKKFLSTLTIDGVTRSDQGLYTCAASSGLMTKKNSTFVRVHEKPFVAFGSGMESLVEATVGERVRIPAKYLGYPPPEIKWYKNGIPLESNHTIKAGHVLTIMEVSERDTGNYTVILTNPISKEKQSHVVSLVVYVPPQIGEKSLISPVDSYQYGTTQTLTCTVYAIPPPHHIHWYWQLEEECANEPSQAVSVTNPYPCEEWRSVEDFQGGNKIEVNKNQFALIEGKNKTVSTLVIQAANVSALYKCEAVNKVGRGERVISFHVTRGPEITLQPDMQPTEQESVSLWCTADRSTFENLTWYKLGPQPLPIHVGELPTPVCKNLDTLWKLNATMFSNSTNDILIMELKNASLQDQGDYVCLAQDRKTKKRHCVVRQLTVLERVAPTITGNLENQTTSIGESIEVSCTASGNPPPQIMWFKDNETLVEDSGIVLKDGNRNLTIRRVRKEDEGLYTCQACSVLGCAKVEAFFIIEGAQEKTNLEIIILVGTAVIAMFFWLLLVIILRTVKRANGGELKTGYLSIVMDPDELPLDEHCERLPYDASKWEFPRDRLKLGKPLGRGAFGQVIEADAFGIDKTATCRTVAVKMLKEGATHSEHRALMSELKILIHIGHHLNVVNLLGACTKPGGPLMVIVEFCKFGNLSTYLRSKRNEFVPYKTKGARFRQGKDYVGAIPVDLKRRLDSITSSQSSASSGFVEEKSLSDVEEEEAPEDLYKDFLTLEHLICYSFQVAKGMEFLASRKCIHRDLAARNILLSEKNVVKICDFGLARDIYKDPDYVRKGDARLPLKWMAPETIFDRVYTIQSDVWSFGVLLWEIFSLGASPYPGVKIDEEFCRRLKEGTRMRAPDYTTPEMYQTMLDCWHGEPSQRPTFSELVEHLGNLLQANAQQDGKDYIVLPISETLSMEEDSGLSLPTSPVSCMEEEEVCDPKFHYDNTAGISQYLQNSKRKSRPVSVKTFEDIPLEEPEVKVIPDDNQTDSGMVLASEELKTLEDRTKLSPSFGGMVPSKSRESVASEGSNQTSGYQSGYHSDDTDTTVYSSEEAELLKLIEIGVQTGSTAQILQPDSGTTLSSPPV

Chain of Ephrin type-A receptor 2 (P29317 whole entry): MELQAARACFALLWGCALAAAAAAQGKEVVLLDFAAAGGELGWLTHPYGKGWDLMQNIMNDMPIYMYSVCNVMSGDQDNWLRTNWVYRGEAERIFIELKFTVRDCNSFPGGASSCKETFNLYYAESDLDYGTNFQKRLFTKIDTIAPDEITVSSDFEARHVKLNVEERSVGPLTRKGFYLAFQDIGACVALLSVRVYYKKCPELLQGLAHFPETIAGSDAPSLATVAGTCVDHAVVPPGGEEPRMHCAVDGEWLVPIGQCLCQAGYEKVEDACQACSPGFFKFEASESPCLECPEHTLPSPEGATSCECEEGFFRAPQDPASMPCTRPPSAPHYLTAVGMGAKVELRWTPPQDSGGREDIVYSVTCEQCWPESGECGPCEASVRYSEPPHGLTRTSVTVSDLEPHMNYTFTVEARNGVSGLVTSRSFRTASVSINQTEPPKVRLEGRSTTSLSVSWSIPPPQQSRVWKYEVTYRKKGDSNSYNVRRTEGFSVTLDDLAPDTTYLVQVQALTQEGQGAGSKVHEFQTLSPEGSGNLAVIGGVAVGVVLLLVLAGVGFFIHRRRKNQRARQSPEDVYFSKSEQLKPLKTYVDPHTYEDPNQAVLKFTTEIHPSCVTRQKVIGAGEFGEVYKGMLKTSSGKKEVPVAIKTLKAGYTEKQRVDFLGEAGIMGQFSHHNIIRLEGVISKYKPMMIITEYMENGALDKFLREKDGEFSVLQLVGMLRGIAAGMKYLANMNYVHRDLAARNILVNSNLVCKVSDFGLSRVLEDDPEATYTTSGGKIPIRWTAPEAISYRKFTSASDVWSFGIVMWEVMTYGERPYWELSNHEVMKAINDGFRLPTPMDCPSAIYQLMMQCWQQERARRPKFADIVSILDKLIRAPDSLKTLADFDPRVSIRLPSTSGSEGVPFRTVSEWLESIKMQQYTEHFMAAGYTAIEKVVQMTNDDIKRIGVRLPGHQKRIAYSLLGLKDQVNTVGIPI

| Structure (SMILES) | IC50 [1] | IC50 [2] | IC50 [3] |
| --- | --- | --- | --- |
| COc1cc2c(Nc3ccc(Cl)c(Cl)c3F)ncnc2cc1OC[C@H]1CN2CCOCC2CO1 (stereo partly specified) [US9796704, Entry 29] | < 50 nM | in the range around 525 nM | in the range around 525 nM |
| COc1cc2c(Nc3ccc(Br)c(Cl)c3F)ncnc2cc1OC[C@H]1CN2CCOCC2CO1 (stereo partly specified) [US9796704, Entry 30] | < 50 nM | < 50 nM | in the range around 525 nM |
| COc1cc2c(Nc3ccc(F)c(Cl)c3F)ncnc2cc1OCC1CO[C@@H]2[C@@H](OC)CO[C@H]12 (stereo partly specified) [US9796704, Entry 45] | in the range around 10500 nM | in the range around 10500 nM | in the range around 10500 nM |
| COc1cc2c(Nc3ccc(Cl)c(Cl)c3)ncnc2cc1OCC1CO[C@@H]2C(OC)CO[C@H]12 (stereo partly specified) [US9796704, Entry 47] | in the range around 10500 nM | in the range around 10500 nM | in the range around 10500 nM |
| C=C1CO[C@@H]2[C@@H](Oc3cc4ncnc(Nc5ccc(Br)c(Cl)c5)c4cc3OC)CO[C@H]12 [US9796704, Entry 81] | in the range around 525 nM | in the range around 525 nM | in the range around 525 nM |
| COc1cc2c(Nc3ccc(Br)c(Cl)c3)ncnc2cc1O[C@H]1CO[C@@H]2[C@@H](OC)[C@@H](OC)O[C@@H]21 [US9796704, Entry 82] | in the range around 525 nM | in the range around 525 nM | in the range around 525 nM |
| COc1cc2c(Nc3ccc(Cl)c(Cl)c3F)ncnc2cc1OCC1CCC2CCCCN2C1 (stereo unspecified) [US9796704, Entry 83] | in the range around 525 nM | in the range around 525 nM | in the range around 525 nM |
| COc1cc2c(Nc3ccc(F)cc3Cl)ncnc2cc1O[C@@H]1CO[C@@H]2[C@H]1OC[C@H]2F [US9796704, Entry 85] | in the range around 525 nM | in the range around 525 nM | in the range around 525 nM |
| COc1cc2c(Nc3ccc(F)cc3Br)ncnc2cc1O[C@@H]1CO[C@@H]2[C@H]1OC[C@H]2F [US9796704, Entry 86] | in the range around 525 nM | in the range around 525 nM | in the range around 525 nM |
| COc1cc2c(Nc3cccc(Cl)c3F)ncnc2cc1O[C@@H]1CO[C@@H]2[C@H]1OC[C@H]2F [US9796704, Entry 88] | in the range around 525 nM | in the range around 525 nM | in the range around 10500 nM |
| COc1cc2c(Nc3cc(F)ccc3F)ncnc2cc1O[C@@H]1CO[C@@H]2[C@H]1OC[C@H]2F [US9796704, Entry 91] | in the range around 525 nM | in the range around 525 nM | in the range around 525 nM |
| COc1cc2c(Nc3cc(Cl)ccc3F)ncnc2cc1O[C@@H]1CO[C@@H]2[C@H]1OC[C@H]2F [US9796704, Entry 93] | in the range around 525 nM | in the range around 525 nM | in the range around 525 nM |
| COc1cc2c(Nc3ccc(F)c(Cl)c3)ncnc2cc1O[C@@H]1CO[C@@H]2[C@H]1OC[C@H]2F [US9796704, Entry 95] | in the range around 525 nM | in the range around 525 nM | in the range around 525 nM |
| COc1cc2c(Nc3c(F)cc(F)cc3F)ncnc2cc1O[C@@H]1CO[C@@H]2[C@H]1OC[C@H]2F [US9796704, Entry 100] | in the range around 525 nM | in the range around 525 nM | in the range around 525 nM |
| COc1cc2c(Nc3cc(F)c(Oc4ccc(Cl)cc4)c(F)c3)ncnc2cc1O[C@@H]1CO[C@@H]2[C@H]1OC[C@H]2F [US9796704, Entry 101] | in the range around 525 nM | in the range around 525 nM | in the range around 525 nM |
| COc1cc2c(Nc3ccc(Br)c(Cl)c3F)ncnc2cc1O[C@@H]1CO[C@@H]2[C@H]1OC[C@H]2F [US9796704, Entry 102] | in the range around 525 nM | in the range around 525 nM | in the range around 525 nM |

| Structure (SMILES) | IC50 [1] | IC50 [2] | IC50 [3] |
| --- | --- | --- | --- |
| COc1cc2c(Nc3cccc(Cl)c3C)ncnc2cc1O[C@@H]1CO[C@@H]2[C@H]1OC[C@H]2F [US9796704, Entry 110] | in the range around 525 nM | in the range around 525 nM | in the range around 525 nM |
| COc1cc2c(Nc3ccccc3Cl)ncnc2cc1O[C@@H]1CO[C@@H]2[C@H]1OC[C@H]2F [US9796704, Entry 112] | in the range around 525 nM | in the range around 525 nM | in the range around 525 nM |
| COc1cc2c(Nc3ccccc3F)ncnc2cc1O[C@@H]1CO[C@@H]2[C@H]1OC[C@H]2F [US9796704, Entry 113] | in the range around 525 nM | in the range around 525 nM | in the range around 525 nM |
| COc1cc2c(Nc3ccc(Cl)cc3)ncnc2cc1O[C@@H]1CO[C@@H]2[C@H]1OC[C@H]2F [US9796704, Entry 116] | in the range around 525 nM | in the range around 525 nM | in the range around 525 nM |
| COc1cc2c(Nc3ccc(Cl)c(C(F)(F)F)c3)ncnc2cc1O[C@@H]1CO[C@@H]2[C@H]1OC[C@H]2F [US9796704, Entry 121] | in the range around 525 nM | in the range around 525 nM | in the range around 525 nM |
| COc1cc2c(Nc3cccc(C(F)(F)F)c3F)ncnc2cc1O[C@@H]1CO[C@@H]2[C@H]1OC[C@H]2F [US9796704, Entry 123] | in the range around 525 nM | in the range around 525 nM | in the range around 525 nM |
| COc1cc2c(Nc3cc(C(F)(F)F)ccc3Br)ncnc2cc1O[C@@H]1CO[C@@H]2[C@H]1OC[C@H]2F [US9796704, Entry 124] | in the range around 525 nM | in the range around 525 nM | in the range around 525 nM |
| COc1cc2c(Nc3ccc(F)cc3C(F)(F)F)ncnc2cc1O[C@@H]1CO[C@@H]2[C@H]1OC[C@H]2F [US9796704, Entry 126] | in the range around 525 nM | in the range around 525 nM | in the range around 10500 nM |
| COc1cc2c(Nc3ccccc3Br)ncnc2cc1O[C@@H]1CO[C@@H]2[C@H]1OC[C@H]2F [US9796704, Entry 128] | in the range around 525 nM | in the range around 525 nM | in the range around 525 nM |
| COc1cc2c(Nc3ccc(Br)cc3)ncnc2cc1O[C@@H]1CO[C@@H]2[C@H]1OC[C@H]2F [US9796704, Entry 130] | in the range around 525 nM | in the range around 525 nM | in the range around 525 nM |
| COc1cc2c(Nc3ccc(C)c(Br)c3)ncnc2cc1O[C@@H]1CO[C@@H]2[C@H]1OC[C@H]2F [US9796704, Entry 131] | in the range around 525 nM | in the range around 525 nM | in the range around 525 nM |
| COc1cc2c(Nc3cc(C)cc(C)c3)ncnc2cc1O[C@@H]1CO[C@@H]2[C@H]1OC[C@H]2F [US9796704, Entry 133] | in the range around 525 nM | in the range around 525 nM | in the range around 525 nM |
| COc1cc(Nc2ncnc3cc(O[C@@H]4CO[C@@H]5[C@H]4OC[C@H]5F)c(OC)cc23)c(OC)cc1Cl [US9796704, Entry 136] | in the range around 525 nM | in the range around 525 nM | in the range around 525 nM |
| COc1cc2c(Nc3ccc(Cl)c(Cl)c3)ncnc2cc1OCc1cccc2nsnc12 [US9796704, Entry 159] | in the range around 525 nM | in the range around 525 nM | in the range around 525 nM |
| COc1cc2c(Nc3ccc(Cl)c(Cl)c3)ncnc2cc1OCc1nc2ccccc2s1 [US9796704, Entry 162] | in the range around 525 nM | in the range around 525 nM | in the range around 525 nM |
| COc1cc2c(Nc3ccc(Cl)c(Cl)c3)ncnc2cc1OCc1cnn(-c2ccccc2)c1 [US9796704, Entry 165] | in the range around 525 nM | in the range around 525 nM | in the range around 10500 nM |
